Test results reported in ChEMBL document CHEMBL1158171, “Bioactivities of a series of phosphodiesterase type 5 (PDE-5) inhibitors as modelled by MIA-QSAR” (Eur J Med Chem, 2008).

What was measured:
[1] = Octanol-water partition coefficient, log P of the compound; type: physicochemical
[2] = molecular target: cGMP-specific 3',5'-cyclic phosphodiesterase (Homo sapiens, UniProt O76074)

SMILES | logP [1] | IC50 [2]
CCN1C(=O)c2c(nc(OC)n2Cc2ccc(O)c(Br)c2)N2C[C@@H](Cc3ccccc3)N=C12 | 5.63 | 
CCN1C(=O)c2c(nc(C#Cc3ccccc3)n2Cc2ccc(O)cc2)N2C1=N[C@@H]1CCC[C@@H]12 | 5.24 | 
CCN1C(=O)c2c(nc(Cc3ccccc3)n2Cc2ccc3c(c2)OCO3)N2C1=N[C@@H]1CCC[C@@H]12 | 5.25 | 
CCN1C(=O)c2c(nc(C(N)=O)n2Cc2ccc(OC)c(Br)c2)N2C1=N[C@@H]1CCC[C@@H]12 | 3.3 | 
CCN1C(=O)c2c(nc(C(=O)NC)n2Cc2ccc(OC)c(Cl)c2)N2C1=N[C@@H]1CCC[C@@H]12 | 3.26 | 
CCN1C(=O)c2c(ncn2Cc2ccc(OC)c(Cl)c2)N2C1=N[C@@H]1CCC[C@@H]12 | 3.47 | 
CCOc1nc2c(n1Cc1ccc(OC)c(Br)c1)C(=O)N(CC)C1=N[C@@H]3CCC[C@@H]3N12 | 4.93 | 
CCSc1nc2c(n1Cc1ccc(OC)cc1)C(=O)N(CC)C1=N[C@@H]3CCC[C@@H]3N12 | 4.67 | 
CCN1C(=O)C2C(N=C(OC)N2Cc2ccc(OC)c(Cl)c2)N2C[C@@H](Cc3ccccc3)N=C12 (some centres undefined) |  | 1.58 nM
CCN1C(=O)c2c(nc(Cc3ccccc3)n2Cc2ccc(Cl)cc2)N2C1=N[C@@H]1CCC[C@@H]12 | 6.03 | 
CCN1C(=O)c2c(nc(C(N)=O)n2Cc2ccc(O)c(Cl)c2)N2C[C@@H](Cc3ccccc3)N=C12 | 4.06 | 
CCOc1nc2c(n1Cc1ccc(O)c(Cl)c1)C(=O)N(CC)C1=N[C@@H]3CCC[C@@H]3N12 | 4.4 | 
CCN1C(=O)c2c(nc(OC)n2Cc2ccc(OC)c(C#N)c2)N2C[C@@H](Cc3ccccc3)N=C12 | 5.1 | 
CCN1C(=O)c2c(nc(OC)n2Cc2ccc(O)c(Cl)c2)N2C1=N[C@@H]1CCC[C@@H]12 | 4.06 | 
CCN1C(=O)c2c(nc(C#Cc3ccccc3)n2Cc2ccc(Cl)cc2)N2C1=N[C@@H]1CCC[C@@H]12 | 6.19 | 
CCN1C(=O)c2c(nc(C(=O)OC)n2Cc2ccc(OC)cc2)N2C1=N[C@@H]1CCC[C@@H]12 | 3.38 | 
CCN1C(=O)C2C(N=CN2Cc2ccc(O)c(Br)c2)N2C1=N[C@@H]1CCC[C@@H]12 (some centres undefined) |  | 6.31 nM
CCN1C(=O)c2c(nc(OC)n2Cc2ccc(OC)c(Br)c2)N2C[C@@H](Cc3ccccc3)N=C12 | 5.89 | 
CCN1C(=O)c2c(nc(OC)n2Cc2ccc(OC)c(Cl)c2)N2C1=N[C@@H]1CCC[C@@H]12 | 4.32 | 
CCSc1nc2c(n1Cc1ccc(O)cc1)C(=O)N(CC)C1=N[C@@H]3CCC[C@@H]3N12 | 4.41 | 

SMILES | logP [1] | IC50 [2]
CCN1C(=O)c2c(nc(OCc3ccccc3)n2Cc2ccc(O)c(Cl)c2)N2C[C@@H](Cc3ccccc3)N=C12 | 7.09 | 
CCN1C(=O)c2c(nc(C(N)=O)n2Cc2ccc(O)c(Cl)c2)N2C1=N[C@@H]1CCC[C@@H]12 | 2.76 | 
CCOc1nc2c(n1Cc1ccc(OC)cc1)C(=O)N(CC)C1=N[C@@H]3CCC[C@@H]3N12 | 4.1 | 
CCN1C(=O)c2c(nc(C(F)(F)F)n2Cc2ccc(O)cc2)N2C1=N[C@@H]1CCC[C@@H]12 | 4.22 | 
CCN1C(=O)c2c(nc(C(N)=O)n2Cc2ccc(OC)c(Cl)c2)N2C[C@@H](Cc3ccccc3)N=C12 | 4.32 | 
CCN1C(=O)c2c(nc(C(N)=O)n2Cc2ccc(O)cc2)N2C1=N[C@@H]1CCC[C@@H]12 | 2.2 | 
CCN1C(=O)c2c(nc(C(=O)NC)n2Cc2ccc(O)c(Cl)c2)N2C1=N[C@@H]1CCC[C@@H]12 | 3 | 
CCN1C(=O)c2c(nc(C#N)n2Cc2ccc(OC)cc2)N2C1=N[C@@H]1CCC[C@@H]12 | 3.59 | 
CCN1C(=O)c2c(nc(C#Cc3ccccc3)n2Cc2ccc(OC)cc2)N2C1=N[C@@H]1CCC[C@@H]12 | 5.5 | 
CCN1C(=O)c2c(nc(OC)n2Cc2ccc(OC)c(Br)c2)N2C1=N[C@@H]1CCC[C@@H]12 | 4.59 | 
CCN1C(=O)c2c(nc(OC)n2Cc2ccc(O)c(Br)c2)N2C1=N[C@@H]1CCC[C@@H]12 | 4.33 | 
CCN1C(=O)c2c(ncn2Cc2ccc(OC)c(Br)c2)N2C1=N[C@@H]1CCC[C@@H]12 | 3.74 | 
CCN1C(=O)c2c(nc(C(N)=O)n2Cc2ccc(O)c(Br)c2)N2C1=N[C@@H]1CCC[C@@H]12 | 3.03 | 
CCN1C(=O)c2c(nc(C(N)=O)n2Cc2ccc(OC)cc2)N2C1=N[C@@H]1CCC[C@@H]12 | 2.47 | 
CCOc1nc2c(n1Cc1ccc(OC)c(Cl)c1)C(=O)N(CC)C1=N[C@@H]3CCC[C@@H]3N12 | 4.66 | 
CCN1C(=O)c2c(nc(Cc3ccccc3)n2Cc2ccc(OC)c(Cl)c2)N2C1=N[C@@H]1CCC[C@@H]12 | 5.9 | 
CCN1C(=O)c2c(nc(Cc3ccccc3)n2Cc2ccc(C)cc2)N2C1=N[C@@H]1CCC[C@@H]12 | 5.95 | 
CCN1C(=O)c2c(nc(OC)n2Cc2ccc(O)c(Cl)c2)N2C[C@@H](Cc3ccccc3)N=C12 | 5.36 | 
CCN1C(=O)c2c(nc(Cc3ccccc3)n2Cc2ccccc2)N2C1=N[C@@H]1CCC[C@@H]12 | 5.47 | 
